# Laboratory results from the OligoGym collection.
# Values joined by “and” are separate entries in the source; they are usually repeats but may differ in a detail not shown here. Equal values may be shown once. After the bases stand the sugars from the 5' end (letter, count) and the backbone: PS all phosphorothioate, else s phosphorothioate and o phosphodiester by linkage. Methylation of C is not given here. e = 2'-O-(2-methoxyethyl) (MOE); k = constrained ethyl (cEt); d = 2'-deoxy (DNA)
# Target: SOD1
# Conditions: ASO
sequence,measurement,setting,value
"CAGGATAACAGATGAGT (sugars e2 k2 d9 k2 e2, PS)",target mRNA inhibition,"HepG2, 0.1875 µM",56%
same,target mRNA inhibition,"HepG2, 0.75 µM",89%
same,target mRNA inhibition,"HepG2, 3 µM",93%
same,target mRNA inhibition,"HepG2, 4 µM",96%
same,target mRNA inhibition,"HepG2, 12 µM",96%
"ATTGAAACAGACATTTT (sugars e3 k2 d7 k2 e3, PS)",target mRNA inhibition,"HepG2, 3 µM",22%
"ATAATAAGTGCCATACA (sugars e2 k2 d9 k2 e2, PS)",target mRNA inhibition,"HepG2, 5 µM",27%
"CTAGCAGGATAACAGAT (sugars e3 k2 d7 k2 e3, PS)",target mRNA inhibition,"HepG2, 3 µM",39%
"CACCCCGTCTCCGCGACTAC (sugars e5 d10 e5, PS)",target mRNA inhibition,"HepG2, 4 µM",13%
"GAATCTTCAATAGACACATC (sugars e5 d10 e5, PS)",target mRNA inhibition,"HepG2, 5 µM",22% and 11%
"GAATGTTTATTGGGCGA (sugars e2 k2 d8 k2 e3, PS)",target mRNA inhibition,"HepG2, 4 µM",47%
"TTAATGTTTATCAGGA (sugars ekddddddddekekee, linkages s1 o1 s8 o3 s2)",target mRNA inhibition,"A431, 0.12 µM",0%
same,target mRNA inhibition,"A431, 0.6 µM",7%
same,target mRNA inhibition,"A431, 3 µM",21%
same,target mRNA inhibition,"A431, 15 µM",46%
same,target mRNA inhibition,"HepG2, 0.222 µM",52%
same,target mRNA inhibition,"HepG2, 0.667 µM",73%
same,target mRNA inhibition,"HepG2, 2 µM",84%
same,target mRNA inhibition,"HepG2, 6 µM",93%
"TTACACTTTTAAGATTACAG (sugars e5 d10 e5, PS)",target mRNA inhibition,"HepG2, 5 µM",0%
"GATCATAAATCAGTTTC (sugars e2 k2 d8 k2 e3, PS)",target mRNA inhibition,"HepG2, 5 µM",34%
"CCTCAGACTACATCCAA (sugars e2 k2 d8 k2 e3, PS)",target mRNA inhibition,"HepG2, 0.1875 µM",26%
same,target mRNA inhibition,"HepG2, 0.75 µM",51%
same,target mRNA inhibition,"HepG2, 3 µM",77%
same,target mRNA inhibition,"HepG2, 4 µM",73%
same,target mRNA inhibition,"HepG2, 12 µM",91%
"CATTGAAACAGACATTT (sugars e3 k2 d7 k2 e3, PS)",target mRNA inhibition,"HepG2, 3 µM",11%
"CGTCGCCCTTCAGCACG (sugars e2 k2 d9 k2 e2, PS)",target mRNA inhibition,"HepG2, 4 µM",43%
"TAATGTTTATCAGGATA (sugars e2 k2 d8 k2 e3, linkages s1 o2 s9 o2 s2)",target mRNA inhibition,"A431, 0.12 µM",0%
same,target mRNA inhibition,"A431, 0.6 µM",38%
same,target mRNA inhibition,"A431, 3 µM",54%
same,target mRNA inhibition,"A431, 15 µM",68%
same,target mRNA inhibition,"HepG2, 0.222 µM",64%
same,target mRNA inhibition,"HepG2, 0.667 µM",89%
same,target mRNA inhibition,"HepG2, 2 µM",94%
same,target mRNA inhibition,"HepG2, 6 µM",92%
"CGAAATTGATGATGCCCTGC (sugars e5 d10 e5, PS)",target mRNA inhibition,"HepG2, 4 µM",32%
"CCATACAGGGTTTTTAT (sugars e2 k2 d9 k2 e2, PS)",target mRNA inhibition,"HepG2, 5 µM",34%
"ACGCTGCAGGAGACTAC (sugars e3 k2 d7 k2 e3, PS)",target mRNA inhibition,"HepG2, 3 µM",25%
"AGTGTTTAATGTTTATC (sugars ekekddddddddkekee, linkages s1 o2 s9 o2 s2)",target mRNA inhibition,"A431, 0.062 µM",52%
same,target mRNA inhibition,"A431, 0.185 µM",68%
same,target mRNA inhibition,"A431, 0.556 µM",79%
same,target mRNA inhibition,"A431, 1.667 µM",88%
same,target mRNA inhibition,"A431, 5 µM",89%
same,target mRNA inhibition,"A431, 15 µM",91%
same,target mRNA inhibition,"SH-SY5Y, 0.062 µM",38%
same,target mRNA inhibition,"SH-SY5Y, 0.185 µM",49%
same,target mRNA inhibition,"SH-SY5Y, 0.556 µM",61%
same,target mRNA inhibition,"SH-SY5Y, 1.667 µM",83%
same,target mRNA inhibition,"SH-SY5Y, 5 µM",81%
same,target mRNA inhibition,"SH-SY5Y, 15 µM",84%
"CCAATGATGCAATGGTCTCC (sugars e5 d10 e5, PS)",target mRNA inhibition,"HepG2, 5 µM",8%
"TATTCACAGGCTTGAAT (sugars e2 k2 d8 k2 e3, PS)",target mRNA inhibition,"HepG2, 5 µM",24%
"CAAACCAGCACCCCGTCTCC (sugars e5 d10 e5, PS)",target mRNA inhibition,"HepG2, 4 µM",13%
"TTAAGTCTGGCAAAATA (sugars e2 k2 d9 k2 e2, PS)",target mRNA inhibition,"HepG2, 5 µM",42%
"ATCTTCAATAGACACATCGG (sugars e5 d10 e5, PS)",target mRNA inhibition,"HepG2, 5 µM",16% and 0%
"CTCGAAATTGATGATGCCCT (sugars e5 d10 e5, PS)",target mRNA inhibition,"HepG2, 4 µM",31%
"CATGCAGGCCTTCAGTC (sugars e3 k2 d7 k2 e3, PS)",target mRNA inhibition,"HepG2, 3 µM",41%
"CCCCACACCTTCACTG (sugars ekddddddddekekee, linkages s1 o1 s8 o3 s2)",target mRNA inhibition,"A431, 0.12 µM",0%
same,target mRNA inhibition,"A431, 0.6 µM",0%
same,target mRNA inhibition,"A431, 3 µM",0%
same,target mRNA inhibition,"A431, 15 µM",0%
same,target mRNA inhibition,"HepG2, 0.222 µM",21%
same,target mRNA inhibition,"HepG2, 0.667 µM",36%
same,target mRNA inhibition,"HepG2, 2 µM",60%
same,target mRNA inhibition,"HepG2, 6 µM",75%
"GGATTCTTTTAATAGCC (sugars e2 k2 d9 k2 e2, PS)",target mRNA inhibition,"HepG2, 5 µM",19%
"CTTTTAAGATTACAGTG (sugars e2 k2 d9 k2 e2, PS)",target mRNA inhibition,"HepG2, 5 µM",53%
"GATTACAGTGTTTAATG (sugars e3 k2 d7 k2 e3, PS)",target mRNA inhibition,"HepG2, 3 µM",10%
"TCTCCAACATGCCTCTC (sugars e3 k2 d7 k2 e3, PS)",target mRNA inhibition,"HepG2, 3 µM",10%
"TTTATTGGGCGATCCCA (sugars e2 k2 d9 k2 e2, PS)",target mRNA inhibition,"HepG2, 4 µM",46%
"TTGGATTCTTTTAATAG (sugars e2 k2 d8 k2 e3, PS)",target mRNA inhibition,"HepG2, 5 µM",23%
"TGACAAGTTTAATACCC (sugars e2 k2 d8 k2 e3, PS)",target mRNA inhibition,"HepG2, 5 µM",43%
"TGCAGGCCTTCAGTCAGTCC (sugars e5 d10 e5, PS)",target mRNA inhibition,"HepG2, 5 µM",42% and 46%
